This is an account of results in a melting point compilation (Tetko et al.; mined from patent text by program, amines drawn as free bases though some values may be those of a salt).

Structures are written as SMILES. Some results are limits rather than exact numbers.

The compound `C[C@@H]1C[C@H](C)CN(C(=O)[C@@H]2Cc3cc(Br)ccc3N2c2ncccn2)C1` returned a melting point of 142 to 144 °C. The compound `O=c1[nH]c2ncc(Cl)cc2o1` returned a melting point of 184 to 186 °C.

For `Cc1cc(C=O)cc(C)c1N`, the melting point was in the range of 75 to 76 °C. `CC(=O)C=Cc1ccc2c(c1)OCO2`: the melting point lay in the range of 108 to 109 °C.

Regarding `N#CCCCCNc1ccc(O)cc1`, the melting point was in the range of 88 to 90 °C. In turn, `CCOC(=O)COc1cccc(N)c1` yielded a melting point of 162 to 164 °C. As to `Clc1ccc2[nH]c(Cc3ccccc3)c(C3=NCCN3)c2c1`, the melting point was in the range of 299 to 300 °C. As for `COC(=O)C1CN(C(=O)C2=Cc3cc(OC)c(OC)cc3CCC2)CCN1` (stereo not given), the melting point lay in the range of 103 to 104 °C. Take `COC(=O)c1cccc(OCc2ncc3ccccc3n2)c1`: the melting point is 78 to 80 °C. To `CNC1=NS(=O)(=O)N=C1NCCSCc1ccc(CN(C)C)s1` belongs 60.5 to 66 °C; to `CCOC(=O)Nc1c(Cl)cc(OC)c(OC)c1C(=O)OCC`, 111 to 113 °C.

Consider `CN(C)Cc1cccc(OCCCNc2nc(N=Cc3cccnc3)nn2C)c1`, for which the melting point was 92 to 93 °C. In turn, `O=Cc1nn(-c2ccccc2)c2c1CCCC2` displayed a melting point of 60 °C. Turning to `CC(C)(Oc1ccc(CCC(=O)c2ccc(-c3ccc(C(F)(F)F)cc3)s2)c(Cl)c1Cl)C(=O)O`, the melting point fell in the range of 153 to 154 °C. Turning to `COc1cc2c(Nc3ccc(Sc4nccn4C)c(Cl)c3)c(C#N)cnc2cc1-c1csc(CN2CCN(C)CC2)c1`, the melting point lay within 162 to 164 °C.

Regarding `CCn1nnc2cc3c(=O)n(C(C)Cn4ncnn4)nnc3cc2c1=O` (stereo not given), the melting point was in the range of 174 to 176 °C. Next, `CCN1c2ncccc2C(=O)N(C)c2ccc(-c3cnn(C)c3)nc21`: 65 to 67 °C; `CN(O)CC1=C(n2ccccc2=O)c2cc([N+](=O)[O-])ccc2OC1(C)C`: 159 °C.

`CN(C)CCN(C(=O)N(C)C)c1ccc(N)cn1` yielded a melting point of 118 to 119 °C. `O=C(NCC1CN(Cc2ccccc2)CCO1)c1cccc2c1OCO2` (stereo not given) gave a melting point of 144 to 146 °C. To `Nc1cc(C(F)(F)F)ccc1N(N)C=O` belongs 121 to 122 °C; to `Cc1cc(-c2ccc(Cl)c(Cl)c2)nc(-c2cccc(-c3cccc(S(N)(=O)=O)c3)c2)n1`, 206 °C; to `Fc1cc2[nH]c(S)nc2cc1N1CCCC1`, 170 to 171 °C. In turn, `COc1cccc2c1Cc1ccccc1C2(CCOS(C)(=O)=O)CCOS(C)(=O)=O` registered a melting point of 128 to 131 °C. To `COc1cccc(Sc2ccnc(Nc3cc(OC)c(OC)c(OCCN4CCCC4)c3)n2)c1` belongs 120 to 121 °C; to `CC1CCC(C(C)C)C(OC(=O)C(=O)Nc2nc(-c3ccccc3)cs2)C1` (stereo not given), 98 to 100 °C.

Compound `CCOC(=O)c1n[nH]c(C(=O)OCC)c1C(O)c1ccc(Cl)cc1[N+](=O)[O-]` (stereo not given) gave a melting point of 60 °C. Next, `Cn1cc(-c2cc(-c3c[nH]nc3-c3ccccn3)ccc2F)cn1`: 134 to 136 °C; `COC(=O)c1c(NC(C)=O)sc2c1CCC(C(C)(C)C)C2` (stereo not given): 117 to 118 °C; `O=C(O)c1ccc(-c2nc(-c3ccc(Cl)cc3)no2)c([N+](=O)[O-])c1`: 257 to 258 °C. `COC(=O)C1CCC2C3CCC4CC(=O)CCC4(C)C3C(NC3CCCC3)CC12C` (stereo not given) yielded a melting point of 156 to 158 °C. The compound `CC(CC(=O)O)CC(=O)Nc1cccc(-c2ccnc3c(C(=O)c4cccs4)cnn23)c1` (stereo not given) returned a melting point of 135 to 136 °C. `CC(=O)NC1CCC(CNc2nc3c(s2)CCOc2ccccc2-3)CC1` (stereo not given) yielded a melting point of 69 to 72 °C. `CCOC(=O)c1cccc(Cn2cnc3ccncc32)c1` yielded a melting point of 102 to 104 °C. For the compound `COc1cc2c(c(OC(=O)Cc3ccccc3)c1OC)=NC(=O)C(=O)N=2`, the melting point fell in the range of 298 to 300 °C. With `O=C(O)c1ccc(-c2cccc(C(=O)O)c2)cc1`, the melting point is above 250 °C. Next, `O=C(O)Cc1ccc(OCc2ccccc2)cc1OCc1ccccc1`: 139 °C; `Cc1ccc2c(c1C)OCC(NNc1ncnc3c1ncn3C1OC(CO)C(O)C1O)C2` (stereo not given): 170 to 172 °C.

With `CCOc1ccc2[nH]c(=O)n(-c3ccccc3Cl)c2c1`, the melting point came to 97 °C. For `CCOC(=O)c1c(OC(C)C)nc2cc(OC)c(OC)cc2c1-c1ccc(OC)c(OC)c1`, the melting point lay in the range of 142 to 143 °C. `OCCOc1ccc2nc(S)sc2c1` gave a melting point of 162 to 165 °C. Compound `Cc1ccccc1CNc1c2c(nc3ccccc13)CCCC2O` (stereo not given) returned a melting point of 167 to 169 °C. As to `CCOC(=O)C(C)O/N=C(\C(=O)Sc1nc2ccccc2s1)c1csc(N)n1` (stereo not given), the melting point was found to be 113 °C. Consider `O=C(C1=Cc2ccccc2C1)c1ccc(OC(F)(F)F)cc1`, for which the melting point was in the range of 115 to 117 °C. Compound `CCOC(=O)O[C@H](c1ccc(S(C)(=O)=O)cc1)[C@@H](CF)NC(=O)C(Cl)Cl` returned a melting point of 110 to 112 °C. Take `O=C(O)c1c(-c2cc(Cl)cc(Cl)c2)c2ccccc2n1Cc1cc2c(cc1Cl)OCO2`: the melting point lay within 221 to 222 °C. As for `CCOC(=O)C1=C(N)NC(C)=CC1c1ccccc1Cl` (stereo not given), the melting point was found to be 171 °C. `Fc1cccc(Cl)c1-c1c(Cl)cc(Cl)nc1Cl` returned a melting point of 210 °C. `CCN1CN(C)CN(c2cc(Cl)ccc2C)C1=S` displayed a melting point of 129 to 131 °C. To `COc1cc(Nc2c(C#N)cnc3cc(I)c(OC)cc23)c(Cl)cc1Cl` belongs 253 to 254 °C; to `O=C(O)c1ccc(F)c2c1CC(N(CCCc1c[nH]c3ccc(F)cc13)C1CCC1)CO2` (stereo not given), 140 °C. `CCOC(=O)c1nc2c(Cl)nc3cc(C(F)(F)F)ccc3n2c1CBr` showed a melting point of 196 to 198 °C. The compound `CC(=O)Nc1cc(F)c(OCC(F)F)cc1[N+](=O)[O-]` yielded a melting point of 72 to 74 °C. In turn, `Cn1nc(Sc2cc(C(F)(F)F)ccc2C(=O)O)n(C)c1=O` returned a melting point of 211 °C. In the case of `CC(C)c1ccc(N(Cc2cnn(C3CCCC3)c2)C(=O)C2CCCc3c(O)cccc32)cc1` (stereo not given), the melting point is 173 °C. Next, `CC(=O)Sc1ccc(I)cc1`: 56 to 57 °C; `CCc1ccc2c(c1)C(=O)Nc1cccnc1N2C(=O)NCCN1CCCCC1CN(CC)CC` (stereo not given): 124 to 126 °C. As to `N#Cc1cccc(-c2c(C(N)=O)c3n(c2Cl)CCN(C(=O)NC2CCOCC2)C3)c1`, the melting point fell in the range of 236 to 238 °C.

Turning to `CCCC(=O)N[C@H]1CC[C@H](CCN2CCC(c3cccc4c3CCO4)CC2)CC1`, the melting point was 196 °C. With `O=C(Nc1ccc(N2CCOCC2=O)cc1)[C@H]1C[C@@H](O)CN1C(=O)Cc1ccc(Cl)cc1`, the melting point was found to be 141 °C. Next, `C=CCN(CC=C)C(=O)n1cnc(S(=O)(=O)CCCCC)n1`: 28 to 30 °C; `O=C(O)[C@@H]1C[C@H](O)CN1C(=O)c1ccccc1`: 133 to 136 °C; `CNC(=O)Nc1ccc(C2=NNC(=O)CC2C)cn1` (stereo not given): 257 to 259 °C. In turn, `Cc1nc(Cn2nc(C(F)(F)F)cc2C(F)(F)F)ccc1NC(=O)c1cccc(Cl)c1C(=O)N[C@@H](C)CS(C)=O` (stereo not given in full) displayed a melting point of 183 °C. As to `CCN(c1nc(C)cc(-c2ccccc2C(F)(F)F)n1)c1c(Br)cc(N(C)C)cc1OC`, the melting point is 157 to 158 °C. Compound `CC(=O)Oc1cccc2c1C(=O)c1c(OC(C)=O)cc(C#N)cc1C2=O` showed a melting point of 218 to 220 °C. `Cc1cc(C2CC(C)(C)CC(C)(C)C2=O)ccc1F` (stereo not given): the melting point lay within 63 to 64 °C. Next, `N#CCCCN1C(=O)C(O)(c2cccc(Cl)c2)c2ccccc21` (stereo not given): 124 to 126 °C; `N#Cc1cccnc1N1CCN(CC(=O)Nc2cccc([N+](=O)[O-])c2)CC1`: 143 to 145 °C; `O=C(O)Cc1cccc(OCc2ccccc2)c1`: 127 to 129 °C. `CC(=O)Nc1nc2cc3[nH]c(-c4ccncc4)nc3cc2[nH]1` registered a melting point above 330 °C. `O=C1CCC(c2ccccc2)(c2ccccc2)[C@@H]2CN(C(=O)Cc3ccccc3)C[C@H]12` (racemic) returned a melting point of 173 °C.

`COc1cc(OC)nc(NC(=O)N=NS(=O)(=O)C2N(C)C=CN2C)n1` showed a melting point of 201 to 203 °C. `CC(C)(c1ccc(OC#N)cc1)c1ccc(OC#N)cc1`: the melting point came out at 82 °C. The compound `O=C(O)c1cn(C2CC2)c2c(F)c(N3CC4CC3CN4Cc3ccc([N+](=O)[O-])cc3)c(F)cc2c1=O` (stereo not given) came in with a melting point of 177 to 182 °C. To `COC(=O)COc1ccccc1Oc1cc(NC(C)=O)c(F)cc1Cl` belongs 139 °C; to `CC1(C(=O)O)CCCc2c(-c3ccc(Cl)cc3)noc2C1` (stereo not given), 232 to 235 °C. Next, `CCC12CCC3c4ccc(OC)cc4CCC3C1CCC2OCCO` (stereo not given): 131 to 132 °C; `CC1(C)CCC(C)(C)c2cc(C(O)C(=O)Nc3ccc(C(=O)O)cc3)ccc21` (stereo not given): 220 to 221 °C; `CCOc1cc(CO)ccc1OCCBr`: 51 to 53 °C. For `CC(C)c1ccc(C(F)(F)C(F)(F)c2ccccc2)cc1`, the melting point was 97 to 104 °C.

Compound `COC(=O)c1c(-c2cc(OC)c(OC)c(OC)c2)c2cc(OC)c(OCc3cccs3)cc2c(=O)n1-c1ccc(N)cc1` showed a melting point of 205 to 206 °C.

`Cc1cc(-n2nc(C#N)cc2-c2ccc(S(C)(=O)=O)cc2)ccc1F` showed a melting point of 144 °C.

`COc1cc(C)c(NCCO)cc1[N+](=O)[O-]` returned a melting point of 94 °C. Next, `CCCC1OC(C(=O)OC)CC2=C1C(=O)c1ccccc1C2=O` (stereo not given): 112 to 114 °C. Compound `CCN(CC)c1ccc(C(C)=O)cc1S(N)(=O)=O` returned a melting point of 103 to 105 °C.

Compound `CC1(C)Cc2cccc(Oc3c(Cl)cc(NC(=S)NC(=O)c4c(F)cccc4F)cc3Cl)c2O1` came in with a melting point of 153 to 154 °C. Next, `COc1ccc(-c2nc(C)c(-c3cccnc3)[nH]2)cc1OC`: 246 to 248 °C; `C#CC(O)c1ccc(C(=O)OC)s1` (stereo not given): 67 °C; `CC1(C)COP(=O)(OC(C#N)c2cccc(Oc3ccccc3)c2)OC1` (stereo not given): 140 °C.
